Experimental findings from ChEMBL document CHEMBL1201862, “PubChem BioAssay data set” (2004) are described below.

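In this assay, cells in 96-well plates receive the compound at five concentrations for 48 hours. Endpoints are linearly interpolated between the surrounding concentrations. GI50 marks 50% less growth.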 Active and inactive are the calls of the source. Rule as the data show it: active = GI50 up to about 1.1 µM and inactive = higher.

Test systems include OVCAR-8; UACC-62; SF-295; UACC-257; NCI-H460; HCT-116; HOP-62; A498; NCI-H226; T47D; OVCAR-5; HCT-15; MDA-MB-435; HT-29; NCI-H23; M14; MCF7; SNB-75; SK-OV-3.
Common to all, as to assay: NCI-60 cell line screen, 48 h

Regarding `NC(Cc1ccccc1)P(=O)(O)O` (centres undefined), the GI50 in the experiment with OVCAR-8, in the experiment with UACC-62, in the experiment with SF-295, in the experiment with UACC-257, in the experiment with NCI-H460 and with HCT-116 was > 100 µM (inactive) in each case. Also, the GI50 in the experiment with HOP-62 is > 100 µM (inactive); in the experiment with A498 it was > 100 µM (inactive); in the experiment on NCI-H226, > 100 µM (inactive); with T47D it was > 100 µM (inactive); in the experiment on OVCAR-5 it was > 100 µM (inactive); in the experiment on HCT-15 it was over 100 µM. For the same compound, the GI50 in the experiment on MDA-MB-435, in the experiment with HT-29, in the experiment on NCI-H23 and in the experiment on M14 was > 100 µM (inactive) throughout.

On to `N#CCc1nc(O)c2ccccc2n1`, for which the GI50 in the experiment on OVCAR-8, with SF-295, in the experiment with UACC-257, with NCI-H460, in the experiment with HCT-116 and in the experiment with HOP-62 was > 100 µM (inactive) throughout. In addition, the GI50 was 28.1 µM (inactive) in the experiment with MCF7; > 100 µM (inactive) with NCI-H226; 50.6 µM (inactive) in the experiment with T47D; > 100 µM (inactive) in the experiment with OVCAR-5; 48 µM in the experiment on HCT-15; > 100 µM (inactive) with MDA-MB-435. For the same compound, the GI50 with HT-29, in the experiment on SNB-75, in the experiment on NCI-H23, with M14 and with SK-OV-3 was > 100 µM (inactive) in each case.

With `c1ccc(CSC2(SCc3ccccc3)CCCCC2)cc1`, the GI50 in the experiment with OVCAR-8, in the experiment with UACC-62, with SF-295, with UACC-257, with NCI-H460 and with HCT-116 was > 10 µM (inactive) throughout. In addition, the GI50 in the experiment on HOP-62 is > 10 µM (inactive); with MCF7, > 10 µM (inactive); with A498, > 10 µM (inactive); in the experiment on NCI-H226, > 10 µM (inactive); in the experiment on T47D it was > 10 µM (inactive); in the experiment with HCT-15 it was over 10 µM. Also, the GI50 with HT-29, in the experiment on SNB-75, with NCI-H23, in the experiment on M14 and with SK-OV-3 was > 10 µM (inactive) each time.

As to `CCC1(c2ccc(OC)c(OC)c2)CCN(S(=O)(=O)c2ccc(C)cc2)C1` (centres undefined), the GI50 in the experiment with UACC-62 is > 100 µM (inactive); with SF-295 it was > 100 µM (inactive); in the experiment on UACC-257, > 100 µM (inactive); in the experiment on NCI-H460 it was 64 µM (inactive); in the experiment on HCT-116, 57.4 µM (inactive); in the experiment with HOP-62 it was > 100 µM (inactive). Moreover, the GI50 with MCF7 is > 100 µM (inactive); in the experiment on NCI-H226, > 100 µM (inactive); in the experiment on T47D, > 100 µM (inactive); in the experiment with OVCAR-5 it was > 100 µM (inactive); with HCT-15, over 100 µM; in the experiment on MDA-MB-435 it was 82.6 µM (inactive). Moreover, the GI50 in the experiment on HT-29, in the experiment with SNB-75, with NCI-H23, with M14 and in the experiment with SK-OV-3 was > 100 µM (inactive) in each case.

With `NCCCCCNOCCCN`, the GI50 with OVCAR-8, in the experiment on UACC-62, in the experiment on SF-295, with UACC-257, with NCI-H460 and in the experiment on HCT-116 was > 100 µM (inactive) each time. The GI50 is > 100 µM (inactive) in the experiment with HOP-62; > 100 µM (inactive) with NCI-H226; > 100 µM (inactive) in the experiment on T47D; > 100 µM (inactive) with OVCAR-5; over 100 µM with HCT-15; > 100 µM (inactive) with MDA-MB-435. Further, the GI50 is > 100 µM (inactive) in the experiment on HT-29; 63.1 µM (inactive) in the experiment on SNB-75; > 100 µM (inactive) in the experiment on NCI-H23; > 100 µM (inactive) in the experiment with M14; > 100 µM (inactive) in the experiment on SK-OV-3.

Take `COCC1OC(Sc2ccccc2)C(O)C(OC)C1OC` (centres undefined): the GI50 with OVCAR-8, in the experiment on UACC-62, in the experiment with SF-295, with UACC-257, with NCI-H460 and with HCT-116 was > 100 µM (inactive) each time. The GI50 with HOP-62 is > 100 µM (inactive); in the experiment on MCF7, > 100 µM (inactive); with NCI-H226, > 100 µM (inactive); in the experiment on T47D, > 100 µM (inactive); in the experiment on OVCAR-5 it was > 100 µM (inactive); in the experiment with HCT-15, over 100 µM. For the same compound, the GI50 with MDA-MB-435, in the experiment with HT-29, in the experiment with NCI-H23, in the experiment on M14 and with SK-OV-3 was > 100 µM (inactive) in each case.

In the case of `CCOC(=O)C(Cc1ccccc1)(Cc1ccc(O)cn1)NC(=O)c1ccccc1` (centres undefined), the GI50 in the experiment on OVCAR-8 is 31.6 µM (inactive); with UACC-62, 16.7 µM (inactive); in the experiment with SF-295 it was 27.3 µM (inactive); in the experiment with UACC-257, 23.5 µM (inactive); in the experiment on NCI-H460 it was 27.4 µM (inactive); in the experiment on HCT-116, 24.7 µM (inactive). In addition, the GI50 in the experiment on HOP-62 was 32.2 µM (inactive); with MCF7, 22.3 µM (inactive); with NCI-H226, 29.2 µM (inactive); with OVCAR-5 it was 27.3 µM (inactive); in the experiment with HCT-15, 19.7 µM; in the experiment on MDA-MB-435, 9.51 µM (inactive). Besides, the GI50 with HT-29 is 26.5 µM (inactive); in the experiment with SNB-75 it was 21.6 µM (inactive); in the experiment on NCI-H23, 32.8 µM (inactive); with M14, 17.9 µM (inactive); with SK-OV-3, 30.6 µM (inactive).

As for `O=C(C[N+]12CN3CN(CN(C3)C1)C2)c1ccc(-c2ccccc2)cc1`, the GI50 in the experiment with OVCAR-8 was 32 µM (inactive); in the experiment with UACC-62 it was 16.1 µM (inactive); in the experiment with SF-295 it was 19.8 µM (inactive); in the experiment on UACC-257, 15.8 µM (inactive); in the experiment with NCI-H460, 13.7 µM (inactive); with HCT-116, 18.8 µM (inactive). Besides, the GI50 in the experiment with HOP-62 was 23 µM (inactive); in the experiment on A498 it was 19.6 µM (inactive); in the experiment with NCI-H226, 21.2 µM (inactive); in the experiment with T47D it was 37.2 µM (inactive); in the experiment on OVCAR-5 it was 18.6 µM (inactive); with HCT-15, 30.1 µM. The GI50 with MDA-MB-435 was 36.5 µM (inactive); in the experiment on HT-29, 22.5 µM (inactive); in the experiment on SNB-75, 19.7 µM (inactive); in the experiment on NCI-H23, 23.3 µM (inactive); in the experiment on M14, 21.7 µM (inactive).

Consider `CCN(CC)Cc1cc(Nc2ccnc3ccc4c(nnn4C)c23)ccc1O`, for which the GI50 in the experiment with OVCAR-8 was 16.1 µM (inactive); in the experiment with UACC-62, 15 µM (inactive); in the experiment on SF-295 it was 12.7 µM (inactive); in the experiment on UACC-257, 14.8 µM (inactive); in the experiment on NCI-H460, 3.42 µM (inactive); with HCT-116 it was 4.93 µM (inactive). Moreover, the GI50 with HOP-62 was 4.92 µM (inactive); with MCF7 it was 4.03 µM (inactive); in the experiment with T47D, 23.9 µM (inactive); in the experiment on OVCAR-5, 11.1 µM (inactive); in the experiment on HCT-15 it was 3.67 µM; in the experiment on HT-29, 5.56 µM (inactive). For the same compound, the GI50 in the experiment with SNB-75 was 5.89 µM (inactive); in the experiment on NCI-H23, 11.5 µM (inactive); in the experiment on M14, 15.3 µM (inactive); in the experiment with SK-OV-3, 14.1 µM (inactive).

Take `CC(C)c1cccc(C(C)C)c1NC(=S)NN=C1C=C(C(C)(C)C)C(=O)C(C(C)(C)C)=C1`: the GI50 in the experiment on OVCAR-8 was 17.8 µM (inactive); in the experiment with UACC-62 it was 20.3 µM (inactive); with SF-295, 31 µM (inactive); in the experiment with UACC-257, 18.9 µM (inactive); in the experiment on NCI-H460 it was 25.6 µM (inactive); in the experiment on HCT-116 it was 3.59 µM (inactive). The GI50 with HOP-62 is 16.5 µM (inactive); in the experiment on A498, 17.9 µM (inactive); in the experiment on NCI-H226, 10 µM (inactive); in the experiment with HCT-15, 37.3 µM; in the experiment on HT-29, 33 µM (inactive); in the experiment with SNB-75, 21.2 µM (inactive). Also, the GI50 in the experiment with NCI-H23 was 16.9 µM (inactive); with M14, 41.6 µM (inactive).

Regarding `O=[N+]([O-])c1ccc2c(c1)S(=O)(=O)N1Cc3ccccc3CCN21`, the GI50 with OVCAR-8 was > 100 µM (inactive); with UACC-62, > 100 µM (inactive); in the experiment on SF-295, 27.1 µM (inactive); in the experiment on UACC-257, 29.1 µM (inactive); in the experiment with NCI-H460 it was > 100 µM (inactive); in the experiment with HCT-116 it was > 100 µM (inactive). For the same compound, the GI50 is > 100 µM (inactive) in the experiment with HOP-62; > 100 µM (inactive) with MCF7; > 100 µM (inactive) with A498; > 100 µM (inactive) in the experiment on NCI-H226; > 100 µM (inactive) in the experiment on OVCAR-5; over 100 µM in the experiment with HCT-15. Further, the GI50 in the experiment with MDA-MB-435 is > 100 µM (inactive); in the experiment with HT-29, > 100 µM (inactive); in the experiment on SNB-75, 59.3 µM (inactive); with NCI-H23 it was > 100 µM (inactive); with M14, > 100 µM (inactive).

On to `COc1ccc(-c2cc(=O)c3c(O)cc(C)cc3o2)cc1OC`, for which the GI50 with UACC-62, in the experiment on SF-295, in the experiment with UACC-257, with NCI-H460, in the experiment on HCT-116 and with HOP-62 was > 100 µM (inactive) throughout. For the same compound, the GI50 is > 100 µM (inactive) in the experiment with MCF7; > 100 µM (inactive) with NCI-H226; > 100 µM (inactive) with T47D; > 100 µM (inactive) in the experiment with OVCAR-5; over 100 µM in the experiment with HCT-15; > 100 µM (inactive) with MDA-MB-435. The GI50 was > 100 µM (inactive) in the experiment on HT-29; 67.1 µM (inactive) in the experiment with SNB-75; > 100 µM (inactive) in the experiment with NCI-H23; > 100 µM (inactive) in the experiment on M14; > 100 µM (inactive) in the experiment with SK-OV-3.
